How the values were obtained:
[1] = test system: bleomycin-induced lung fibrosis; experiment: Intratracheal bleomycin mouse model of pulmonary fibrosis (28-day model); type: in vivo, C57BL/6N mice; settings: Day 28; oral once daily Day 7 to Day 28; fenretinide 10 mg/kg (as LAU-7b SDI), pirfenidone 100 mg/kg
Description: Oral administration of a solid, amorphous dispersion formulation of fenretinide (LAU-7b SDI) was provided as a treatment for reduction of pulmonary fibrosis, in a mouse model of lung fibrosis induced via a single intratracheal administration of bleomycin, for 21 days. The LAU-7b SDI formulation was obtained by spray drying and contains fenretinide in amorphous form in a solid dispersion comprising a matrix polymer, based on the following formula: 40% fenretinide, 59.6% povidone (KOLLIDON® 30), 0.24% butylated hydroxyanisole (BHA) and 0.16% butylated hydroxytoluene (BHT).
Male C57BL/6N mice from Charles River Laboratories, 10-12 weeks of age, weighing around 20-25 g, at the time of their enrolment, received 50 μL of bleomycin sulfate (2.0 mg/kg) by a single intratracheal instillation on Day 1 of the study to induce lung fibrosis. The sham group received an equivalent volume of 0.9% saline. On Day 7 postbleomycin instillation, the animals were randomized in groups of animals based on their body weight loss and enhanced pause airway resistance estimate (PenH value), while the sham group had 6 mice. Oral dosing by gavage (10 mL/kg) with the vehicle (sham and BLM control groups), the test articles (fenretinide 10 mg/kg), and the reference compound (pirfenidone 100 mg/kg) were administered once daily starting from Day 7 to Day 28. Two hours following the last dose on Day 28, all mice were sacrificed, the lungs of each mouse harvested, flushed with 0.9% NaCl and inflated with 10% neutral buffered formalin solution. After embedding and mounting of the lung tissue (transversal slices of 5 μm thickness), the histology slides were stained with hematoxylin/eosin for the Ashcroft score evaluation by a treatment-blinded pathologist and with Sirius red staining for automated fibrosis quantification (Biocelvia, France).
The key endpoints evaluated in this study were Ashcroft score, pulmonary foci and collagen content obtained by histological assessment of the lung tissue at the end of the study. Statistical analysis was made on normally distributed data by one-way ANOVA followed by multiple comparisons (Fisher's LSD post hoc test) to assess the difference between the groups, using Graph Pad Prism Software version 8.0 (San Diego, CA, USA). Differences were considered statistically significant when P values were p<0.05 (*), or p<0.01 (**) or p<0.001 (***).
Ashcroft scale for the evaluation of bleomycin-induced lung fibrosis is the analysis of stained histological samples by visual assessment. The Ashcroft score was assessed in lung tissue collected on Day 28 by treatment-blinded pathologist on H&E stained lung tissue histology slides (3 cross sections/animal) and using the modified Ashcroft scale. Briefly, each lung section was scanned at a magnification of x100 (H&E staining), read by a blinded examiner, and graded from 0 (normal lung) to 8 (total fibrotic obliteration of the field). Criteria for grading lung fibrosis in Ashcroft scale are as follows: Grade 0=normal lung; Grade 1=minimal fibrous thickening of alveolar or bronchiolar walls; Grade 3=moderate thickening of walls without obvious damage to lung architecture; Grade 5=increased fibrosis with definitive damage to lung structure and formation of fibrous bands or small fibrous masses; Grade 7=severe distortion of structure and large fibrous area; Grade 8=total fibrous obliteration of lung fields. The mean value of the grades obtained for each of the three sections was used as the Ashcroft score. Ashcroft score, using the modified scale, is a reliable and reproducible method of visual quantification of bleomycin induced lung fibrosis in H&E stained histological lung sections based on description of the general morphology of alveolar septa and lung structure. […]

[2] = test system: bleomycin-induced lung fibrosis; experiment: Intratracheal bleomycin mouse model of pulmonary fibrosis (21-day model); type: in vivo, C57BL/6N mice; settings: Day 21; oral once daily for 14 days; fenretinide 10 mg/kg (as LAU-7b SDI), pirfenidone 100 mg/kg
Experimental: Oral administration of a solid amorphous dispersion formulation of fenretinide (LAU-7b SDI) was evaluated in treating and/or reducing pulmonary fibrosis in mouse model of lung fibrosis induced via a single intratracheal administration of bleomycin followed by vehicle, fenretinide (LAU-7b SDI) or pirfenidone oral treatment for 21 days. The LAU-7b SDI formulation was obtained by spray drying and contains fenretinide in amorphous form in a solid dispersion comprising a matrix polymer, based on the following formula: 40% fenretinide, 59.6% povidone (KOLLIDON® 30), 0.24% butylated hydroxyanisole (BHA) and 0.16% butylated hydroxytoluene (BHT).
Male C57BL/6N mice from Charles River Laboratories, 10-12 weeks of age, weighing around 20-25 g, at the time of their enrolment, received 50 μL of bleomycin sulfate (2.0 mg/kg) by a single intratracheal instillation on Day 1 of the study. The Sham group received an equivalent volume of 0.9% saline. On Day 7 post-bleomycin instillation the animals were randomized in groups of 8 animals based on their body weight loss and Penh value. Oral dosing by gavage (10 mL/kg) with the vehicle (sham and BLM Control groups), LAU-7b SDI (fenretinide at 5 mg/kg and 10 mg/kg dose), and the reference compound (pirfenidone 100 mg/kg) were initiated once daily starting from Day 7 to Day 21. Two hours following the last dose on Day 21 all the mice were sacrificed, the lungs of each mouse were harvested, flushed with 0.9% NaCl and inflated with 10% neutral buffered formalin solution. After embedding and mounting of the lung tissue (transversal slices of 5 μm thickness), the histology slides were stained with hematoxylin/eosin for the Ashcroft score evaluation by a treatment-blinded pathologist, and with Sirius red staining for automated fibrosis quantification (Biocellvia, France).
As in Example 4, the key endpoints evaluated in this study were the Ashcroft score, pulmonary foci and collagen content obtained by histological assessment of the lung tissue at the end of the study. Statistical analysis was made on normally distributed data by one-way ANOVA followed by multiple comparisons (Fisher's LSD post hoc test) to assess the difference between the groups, using Graph Pad Prism Software version 8.0 (San Diego, CA, USA). Differences were considered statistically significant when P values were p<0.05 (*), or p<0.01 (**) or p<0.001 (***). The Ashcroft score was assessed in the lung tissue by treatment-blinded pathologist on the H&E stained histology slides (2 cross sections/animal) and using the modified Ashcroft scale. Briefly, each lung section was scanned at a magnification of ×100 (H&E staining), and graded from 0 (normal lung) to 8 (total fibrotic obliteration of the field). The mean value of the grades obtained for each of the two sections was used as the Ashcroft score.
Pulmonary foci (fibrotic tissue) and lung collagen content were quantified in the Sirius red stained lung tissue histology sections by high resolution, automated digital image analysis (Biocellvia, France) on Day 21 after lung fibrosis induction by bleomycin (BLM) instillation and following a 14-day oral gavage treatment with LAU-7b SDI (fenretinide, two doses), pirfenidone (reference drug) or vehicle only. Full field analysis of 2 lung sections per animal was conducted and the results were expressed as a mean percentage of total surface. This test is considered highly reliable, offering reproducible and observer-independent assessment of quantitative analysis of fibrosis.

Compound: Cc1ccc(=O)n(-c2ccccc2)c1 [pirfenidone]
- Ashcroft score vs BLM control [1]: did not induce significant improvement
- percentage of collagen content in lung tissue, automated Sirius red analysis, vs BLM control [1]: significantly reduced
- percentage of pulmonary foci (fibrotic tissue), automated Sirius red analysis, vs BLM control [1]: nonsignificant effect
- Ashcroft score vs BLM control [2]: reduced significantly
- percentage of collagen content, automated Sirius red analysis, vs BLM control [2]: did not induce statistically significant reduction
- percentage of pulmonary foci, automated Sirius red analysis, vs BLM control [2]: did not induce statistically significant reduction

Reference: patent publication US20230310352A1, “NOVEL COMPOSITIONS AND METHODS FOR THE TREATMENT OF LUNG FIBROSIS” (LAURENT PHARMACEUTICALS INC., priority 2020, published 2023)
